Patent publication US7034047B2, “Triazole derivative” (Astellas Pharma, Inc., priority 2000, dated 2006)
pIC50: −log10 of the molar value.

Tests used:
[1] = target: T1, GLYT1 subtype of the glycine transporter (Rattus norvegicus, UniProt P28572); assay: [3H]-glycine uptake assay in C6 glioma cells (action of inhibiting glycine transporter); assay type: cell-based; settings: 20 min at 37° C., read-out: GLYT-inhibiting activity IC50
T1 construct: C6 glioma cell expressing GLYT1 subtype of the glycine transporter; host or cells: C6 glioma cells
T1 sequence (P28572 1-638): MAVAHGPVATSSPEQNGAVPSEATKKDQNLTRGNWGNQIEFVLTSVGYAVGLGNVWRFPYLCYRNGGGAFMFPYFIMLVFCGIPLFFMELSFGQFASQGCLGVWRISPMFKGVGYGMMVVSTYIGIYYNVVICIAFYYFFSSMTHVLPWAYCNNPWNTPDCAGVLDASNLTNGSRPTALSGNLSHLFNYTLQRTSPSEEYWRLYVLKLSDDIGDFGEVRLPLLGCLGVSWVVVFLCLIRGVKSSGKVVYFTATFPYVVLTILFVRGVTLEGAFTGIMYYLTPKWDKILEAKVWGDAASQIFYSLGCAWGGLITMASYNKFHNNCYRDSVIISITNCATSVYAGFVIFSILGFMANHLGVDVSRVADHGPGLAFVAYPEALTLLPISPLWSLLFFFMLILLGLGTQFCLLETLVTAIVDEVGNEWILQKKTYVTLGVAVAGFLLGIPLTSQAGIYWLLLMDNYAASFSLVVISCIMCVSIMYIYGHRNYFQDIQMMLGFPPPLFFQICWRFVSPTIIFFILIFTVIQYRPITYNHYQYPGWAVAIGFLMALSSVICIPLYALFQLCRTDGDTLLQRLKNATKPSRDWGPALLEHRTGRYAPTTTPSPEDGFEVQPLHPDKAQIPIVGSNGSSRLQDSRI
Method: 1. Action of Inhibiting Glycine Transporter
C6 glioma cell (American Type Culture Collection) was cultured in DMEM containing 10% fetal bovine serum, 100 units/ml penicillin G and 0.1 mg/ml streptomycin sulfate in a CO2 incubator under conditions of 5% CO2 and 37° C.
[^3H]-glycine uptake was performed by the method of Gomeza, et al.
C6 glioma cells were plated out at a concentration of 2×10^4 cells/well in a 96-well plate (Culturplate, Packard Co.), for culturing for 2 days. Subsequently, [^3H]-glycine uptake was tested. The cell was rinsed once in a buffer (150 mM NaCl, 5 mM KCl, 1 mM CaCl2, 1 mM MgCl2, 10 mM glucose, 5 mM L-alanine, 10 mM Hepes-Na, pH 7.4), followed by subsequent addition of the buffer, for incubation at 37° C. for 10 minutes.
After incubation, the buffer was exchanged to a reaction buffer including [^3H]-glycine (about 0.2 μM, 41 Ci/mmol, New England Nuclear)and a compound to be assessed, for incubation at 37° C. for another 20 minutes. After 20-min reaction, the reaction mixture was rinsed in ice-cold PBS (phosphate buffered saline). The cell was dissolved in 0.1N NaOH solution, to assay the radioactivity incorporated with a liquid scintillation counter. The specific incorporation was defined as a portion substituted with 3 mM sarcosine in the total incorporation. The test compound was assessed by determining the incorporation-inhibiting ratio of the specific incorporation.

pIC50 [1] | melting point [°C] | Structure (SMILES)
6.60 | – | COCCN(C)c1nnc(-c2ccc(-c3ccccc3)nc2)n1-c1ccccc1C#N [Example 8, 2-{3-[N-(2-Methoxyethyl)-N-methylamino]-5-(6-phenylpyridin-3-yl)-4H-1,2,4-triazol-4-yl}benzonitrile]
7.07 | – | Cc1nnc(-c2ccc(-c3ccccc3)cc2)n1-c1ccccc1[N+](=O)[O-] [Example 256]
5.34 | – | c1ccc(-c2ccc(-c3nnc(-c4ccco4)n3-c3ccccc3)cc2)cc1 [Compound 2, 3-(biphenyl-4-yl)-5-(furan-2-yl)-4-phenyl-4H-1,2,4-triazole, reference compound]
5.34 | – | CCc1nnc(-c2ccc(-c3ccccc3)cc2)n1-c1ccccc1Oc1cccnc1 [Example 279]
5.82 | – | CN(CCCSc1nnc(-c2ccc(-c3ccccc3)cc2)n1-c1ccccc1F)CC(=O)O [Example 157]
6.03 | – | CN(CC1CCCO1)c1nnc(-c2ccc(-c3ccccc3)cc2)n1-c1ccccc1F (stereo not shown) [Example 236]
6.46 | – | CCc1nnc(-c2ccc(-c3ccccc3)cc2)n1-c1ccccc1OC [Compound 3, 3-(biphenyl-4-yl)-5-ethyl-4-(2-methoxyphenyl)-4H-1,2,4-triazole, reference compound]
6.48 | – | COCCN(C)c1nnc(-c2ccc(-c3ccccc3)nc2)n1-c1cccc2nonc12 [Example 9, 4-(2,1,3-Benzooxadiazol-4-yl)-N-(2-methoxyethyl)-N-methyl-5-(6-phenylpyridin-3-yl)-4H-1,2,4-triazol-3-ylamine]
6.00 | – | CC(C)c1nnc(-c2cnc(-c3ccccc3)c(Cl)c2)n1-c1c(F)cccc1F [Example 112]
– | 199 to 200 | CSc1nnc(-c2ccc(-c3ccccc3)cc2)n1-c1ccccc1F [Example 12, 3-Biphenyl-4-yl-4-(2-fluorophenyl)-5-methylsulfanyl-4H-1,2,4-triazole]
7.00 | – | CC(C)c1nnc(-c2ccc(-c3ccccc3)nc2)n1-c1cccc2nonc12 [Example 2, 4-[3-Isopropyl 5-(6-phenylpyridin-3-yl)-4H-1,2,4-triazol-4-yl]-2,1,3-benzooxadiazole]
6.70 | – | Cc1nnc(-c2ccc(-c3cccs3)cc2)n1-c1ccccc1F [Example 10, 4-(2-Fluorophenyl)-3-methyl-5-(4-thiophen-2-ylphenyl)-4H-1,2,4-triazole]
6.00 | – | COc1ccccc1-n1c(C)nnc1-c1ccc(-c2ccccc2)cc1 [Compound 1, 3-(biphenyl-4-yl)-4-(2-methoxyphenyl)-5-methyl-4H-1,2,4-triazole, reference compound]
5.80 | – | Fc1ccccc1-n1c(CN2CCc3sccc3C2)nnc1-c1ccc(-c2ccccc2)cc1 [Example 202]
6.39 | – | COCCCc1nnc(-c2ccc(-c3ccccc3)nc2)n1-c1cccc(C#N)c1C [Example 5, 3-[3-(3-Methoxypropyl)-5-(6-phenylpyridin-3-yl)-4H-1,2,4-triazol-4-yl]-2-methylbenzonitrile]

Structure (SMILES) | pIC50 [1] | melting point [°C]
CC(C)c1nnc(-c2ccc(-c3ccccc3)nc2)n1-c1c(F)cccc1F [Example 1, 5-[4-(2,6-Difluorophenyl)-5-isopropyl-4H-triazol-3-yl]-2-phenylpyridine] | 6.85 | –
